Values of other authors, collected in patent US20100099894A1, “Method for the Synthesis of Cyclic Acetals by the Reactive Extraction of a Polyol in a Concentrated Solution” (priority 2006, published 2010).

Conditions: for solubility in water: aqueous solution, at room temperature, data from Yaw's Handbook

| miscibility in water (background description of Solketal) | solubility in water | Compound |
| --- | --- | --- |
| miscible in water | – | CC1(C)OCC(CO)O1 (centres unmarked) [Solketal] |
| – | 6842 mg/kg | CC(=O)c1ccccc1 [acetophenone] |
| – | 2640 mg/kg | CC(C)CC(=O)CC(C)C [diisobutyl ketone] |
| – | 5700 mg/kg | CC(C)C(=O)C(C)C [diisopropyl ketone] |
| – | 1516 mg/kg | CCCCCCC=O [n-heptanal] |
| – | 370 mg/kg | CCCCCCCC=O [n-octanal] |
| – | 11700 mg/kg | CCCCC=O [pentanal] |

| Compound | miscibility in water (background description of Solketal) | solubility in water |
| --- | --- | --- |
| O=Cc1ccccc1 [benzaldehyde] | – | 6570 mg/kg |
